According to patent US8192962B2, “Processes for detecting toxic substances” (Daikin Industries, Ltd., priority 2001, dated 2012):

System: DNA repair protein genes
Test: DNA chip mRNA expression in yeast, DNA repair protein genes (Table 3)
Type: cell-based, Saccharomyces cerevisiae S288C
Settings: incubated two hours, concentrations as in the 1st table
Outline: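 In this screen, yeast in logarithmic growth are challenged for two hours with a toxic substance at a non-lethal inhibitory concentration. Their mRNA, converted to Cy3- or Cy5-labeled cDNA, hybridizes at 65° C. to a chip spanning every yeast gene, and expression is expressed as a ratio to untreated cells.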

## S=C([S-])NCCNC(=S)[S-].[Zn+2] [(11), zinc N,N′-ethylenebis(dithiocarbamate)]
Yeast gene YAL015C
  The level of expressed mRNA in the presence of chemical substance/The level of expressed mRNA in the absence of chemical substance: 1.4
Yeast gene YAR007C
  The level of expressed mRNA in the presence of chemical substance/The level of expressed mRNA in the absence of chemical substance: 0.9
Yeast gene YBL019W
  The level of expressed mRNA in the presence of chemical substance/The level of expressed mRNA in the absence of chemical substance: 1.0
Yeast gene YBR073W
  The level of expressed mRNA in the presence of chemical substance/The level of expressed mRNA in the absence of chemical substance: 0.5
Yeast gene YBR272C
  The level of expressed mRNA in the presence of chemical substance/The level of expressed mRNA in the absence of chemical substance: 1.1
Yeast gene YCR014C
  The level of expressed mRNA in the presence of chemical substance/The level of expressed mRNA in the absence of chemical substance: 0.8
Yeast gene YDL017W
  The level of expressed mRNA in the presence of chemical substance/The level of expressed mRNA in the absence of chemical substance: 0.8
Yeast gene YDL059C
  The level of expressed mRNA in the presence of chemical substance/The level of expressed mRNA in the absence of chemical substance: 2.0
Yeast gene YDL200C
  The level of expressed mRNA in the presence of chemical substance/The level of expressed mRNA in the absence of chemical substance: 1.2
Yeast gene YDR054C
  The level of expressed mRNA in the presence of chemical substance/The level of expressed mRNA in the absence of chemical substance: 1.9
Yeast gene YDR369C
  The level of expressed mRNA in the presence of chemical substance/The level of expressed mRNA in the absence of chemical substance: 1.1
Yeast gene YEL019C
  The level of expressed mRNA in the presence of chemical substance/The level of expressed mRNA in the absence of chemical substance: 1.2
Yeast gene YEL037C
  The level of expressed mRNA in the presence of chemical substance/The level of expressed mRNA in the absence of chemical substance: 1.0
Yeast gene YER162C
  The level of expressed mRNA in the presence of chemical substance/The level of expressed mRNA in the absence of chemical substance: 0.5
Yeast gene YFL014W
  The level of expressed mRNA in the presence of chemical substance/The level of expressed mRNA in the absence of chemical substance: 5.0
Yeast gene YGL058W
  The level of expressed mRNA in the presence of chemical substance/The level of expressed mRNA in the absence of chemical substance: 0.8
Yeast gene YGL091C
  The level of expressed mRNA in the presence of chemical substance/The level of expressed mRNA in the absence of chemical substance: 2.1
Yeast gene YGL127C
  The level of expressed mRNA in the presence of chemical substance/The level of expressed mRNA in the absence of chemical substance: 1.0
Yeast gene YGL163C
  The level of expressed mRNA in the presence of chemical substance/The level of expressed mRNA in the absence of chemical substance: 0.4
Yeast gene YGL249W
  The level of expressed mRNA in the presence of chemical substance/The level of expressed mRNA in the absence of chemical substance: 0.6
Yeast gene YGR180C
  The level of expressed mRNA in the presence of chemical substance/The level of expressed mRNA in the absence of chemical substance: 1.0
Yeast gene YGR231C
  The level of expressed mRNA in the presence of chemical substance/The level of expressed mRNA in the absence of chemical substance: 1.6
Yeast gene YGR258C
  The level of expressed mRNA in the presence of chemical substance/The level of expressed mRNA in the absence of chemical substance: 0.3
Yeast gene YHR164C
  The level of expressed mRNA in the presence of chemical substance/The level of expressed mRNA in the absence of chemical substance: 0.6
Yeast gene YIL036W
  The level of expressed mRNA in the presence of chemical substance/The level of expressed mRNA in the absence of chemical substance: 1.2
Yeast gene YIL072W
  The level of expressed mRNA in the presence of chemical substance/The level of expressed mRNA in the absence of chemical substance: 1.8
Yeast gene YIL143C
  The level of expressed mRNA in the presence of chemical substance/The level of expressed mRNA in the absence of chemical substance: 1.5
Yeast gene YIL153W
  The level of expressed mRNA in the presence of chemical substance/The level of expressed mRNA in the absence of chemical substance: 1.0
Yeast gene YIR002C
  The level of expressed mRNA in the presence of chemical substance/The level of expressed mRNA in the absence of chemical substance: 0.8
Yeast gene YJL026W
  The level of expressed mRNA in the presence of chemical substance/The level of expressed mRNA in the absence of chemical substance: 1.3
Yeast gene YJR046W
  The level of expressed mRNA in the presence of chemical substance/The level of expressed mRNA in the absence of chemical substance: 0.6
Yeast gene YJR052W
  The level of expressed mRNA in the presence of chemical substance/The level of expressed mRNA in the absence of chemical substance: 1.1
Yeast gene YKL145W
  The level of expressed mRNA in the presence of chemical substance/The level of expressed mRNA in the absence of chemical substance: 1.8
Yeast gene YLR103C
  The level of expressed mRNA in the presence of chemical substance/The level of expressed mRNA in the absence of chemical substance: 0.9
Yeast gene YLR233C
  The level of expressed mRNA in the presence of chemical substance/The level of expressed mRNA in the absence of chemical substance: 0.8
Yeast gene YLR288C
  The level of expressed mRNA in the presence of chemical substance/The level of expressed mRNA in the absence of chemical substance: 1.4
Yeast gene YML032C
  The level of expressed mRNA in the presence of chemical substance/The level of expressed mRNA in the absence of chemical substance: 1.0
Yeast gene YML058W
  The level of expressed mRNA in the presence of chemical substance/The level of expressed mRNA in the absence of chemical substance: 3.3
Yeast gene YMR035W
  The level of expressed mRNA in the presence of chemical substance/The level of expressed mRNA in the absence of chemical substance: 1.5
Yeast gene YMR072W
  The level of expressed mRNA in the presence of chemical substance/The level of expressed mRNA in the absence of chemical substance: 1.9
Yeast gene YMR096W
  The level of expressed mRNA in the presence of chemical substance/The level of expressed mRNA in the absence of chemical substance: 1.5
Yeast gene YMR284W
  The level of expressed mRNA in the presence of chemical substance/The level of expressed mRNA in the absence of chemical substance: 1.1
Yeast gene YNL213C
  The level of expressed mRNA in the presence of chemical substance/The level of expressed mRNA in the absence of chemical substance: 1.5
Yeast gene YNL250W
  The level of expressed mRNA in the presence of chemical substance/The level of expressed mRNA in the absence of chemical substance: 1.0
Yeast gene YNL261W
  The level of expressed mRNA in the presence of chemical substance/The level of expressed mRNA in the absence of chemical substance: 0.8
Yeast gene YNL312W
  The level of expressed mRNA in the presence of chemical substance/The level of expressed mRNA in the absence of chemical substance: 1.4
Yeast gene YOL043C
  The level of expressed mRNA in the presence of chemical substance/The level of expressed mRNA in the absence of chemical substance: 1.2
Yeast gene YOR005C
  The level of expressed mRNA in the presence of chemical substance/The level of expressed mRNA in the absence of chemical substance: 1.2
Yeast gene YOR386W
  The level of expressed mRNA in the presence of chemical substance/The level of expressed mRNA in the absence of chemical substance: 1.4
Yeast gene YPL022W
  The level of expressed mRNA in the presence of chemical substance/The level of expressed mRNA in the absence of chemical substance: 0.8
Yeast gene YPL164C
  The level of expressed mRNA in the presence of chemical substance/The level of expressed mRNA in the absence of chemical substance: 1.1
Yeast gene YPL194W
  The level of expressed mRNA in the presence of chemical substance/The level of expressed mRNA in the absence of chemical substance: 0.9
Yeast gene YPR025C
  The level of expressed mRNA in the presence of chemical substance/The level of expressed mRNA in the absence of chemical substance: 0.9
